From patent US20260115265A1, “METHODS AND COMPOSITIONS FOR PREVENTING OR TREATING FOOD ALLERGIES” (Revolo Biotherapeutics Limited, priority 2022, published 2026)
Like-named read-outs stand apart in the source and are kept apart here. Ends that are not written are not given here.

Assay: Serum/plasma pharmacokinetics (half-life)
Type: in vivo

## DGSVVVNKVSELPAGHGLNVNTLSYGDLAAD ['1104]
In vivo, across species, read-out: half-life
  half-life: 10 to 15 min
serum, read-out: serum PK
  half-life: ~15 min
